In one assay the target is DDR1 (Homo sapiens (Human), UniProt Q08345). In words: biochemical.
The subject of assay [1] is human endometrial cancer cell line MFE-280. Briefly: Antitumor effect in cancer-bearing mice with subcutaneously transplanted MFE-280. It counts as in vivo. To be noted: Dose 200 mg/kg, orally once daily; MFE-280 in BALB/c nude mice; 11th day after start of administration. The procedure:
3. Measurement of Antitumor Effect
The antitumor effect was measured for representative examples of the compounds of the present invention.
The antitumor effect was measured using cancer-bearing mice in which the human endometrial cancer cell line MFE-280 (manufactured by DSMZ) was subcutaneously transplanted to the flank of BALB/c nude mice (manufactured by Charles River Laboratories Japan, Inc.).
About 1×10^7 MFE-280 cells were subcutaneously transplanted to the flank of the purchased nude mice after a one-week quarantine period. The tumor size was measured with calipers, and the tumor volume was calculated (tumor volume=length×breadth^2/2 (mm^3)). The mice were subjected to the experiment when the tumor volume was about 200 mm^3.
The test compound was suspended in the administration solution, and 0.4 mL of the suspension was orally administered once daily. The antitumor effect was calculated as inhibition of tumor growth by comparing the tumor growth between the drug-treated group and the administration solution-administered control group on the 11th day after the start of administration.
Tumor volume growth inhibition (TGI)=(1−tumor volume growth in drug-treated group/tumor volume growth in control group)×100(%)

This is an account of results in patent publication US9695118B2, “Benzamide derivative” (Chugai Seiyaku Kabushiki Kaisha, priority 2012, dated 2017).

Structures are written as SMILES.

Chain of DDR1 (Q08345 19-913): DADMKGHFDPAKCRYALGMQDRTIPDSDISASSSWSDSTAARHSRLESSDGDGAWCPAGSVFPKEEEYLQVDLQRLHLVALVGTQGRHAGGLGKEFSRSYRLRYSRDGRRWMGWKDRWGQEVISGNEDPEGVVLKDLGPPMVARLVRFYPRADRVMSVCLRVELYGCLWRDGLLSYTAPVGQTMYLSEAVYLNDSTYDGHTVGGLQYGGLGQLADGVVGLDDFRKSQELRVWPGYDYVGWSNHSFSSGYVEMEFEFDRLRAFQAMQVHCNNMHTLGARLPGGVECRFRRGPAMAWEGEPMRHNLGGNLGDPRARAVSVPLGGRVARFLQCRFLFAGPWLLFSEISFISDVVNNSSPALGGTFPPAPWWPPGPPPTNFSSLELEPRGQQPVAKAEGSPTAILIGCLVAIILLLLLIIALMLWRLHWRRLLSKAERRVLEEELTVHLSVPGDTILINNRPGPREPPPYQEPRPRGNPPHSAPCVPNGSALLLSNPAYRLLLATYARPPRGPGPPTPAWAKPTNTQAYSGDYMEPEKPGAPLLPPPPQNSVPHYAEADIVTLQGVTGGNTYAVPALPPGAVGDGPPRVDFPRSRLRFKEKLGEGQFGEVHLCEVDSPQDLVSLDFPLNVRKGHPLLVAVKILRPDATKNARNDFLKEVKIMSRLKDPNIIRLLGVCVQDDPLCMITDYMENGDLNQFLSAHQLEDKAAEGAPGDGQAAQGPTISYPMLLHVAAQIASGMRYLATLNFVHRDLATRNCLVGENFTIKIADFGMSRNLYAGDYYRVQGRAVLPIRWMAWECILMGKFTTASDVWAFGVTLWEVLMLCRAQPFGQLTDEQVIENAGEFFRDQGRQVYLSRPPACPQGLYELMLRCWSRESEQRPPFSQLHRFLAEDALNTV
Protocol for DDR1: Measurement of DDR1 Binding Activity
DDR1 binding activity was measured by the LanthaScreen (Registered trademark) Eu Kinase Binding Assay (manufactured by Life Technologies Corporation). […] After reacting at room temperature for one hour, the fluorescence resonance energy transfer was measured.

Regarding `C#CCN(CC#C)[C@H]1CCCN(Cc2c(Cl)cc(C(=O)NCc3cc(Cl)ccc3S(=O)(=O)CC)cc2C(F)(F)F)C1` [DD-23, 4-[[(3S)-3-[Bis(prop-2-ynyl)amino]piperidin-1-yl]methyl]-3-chloro-N-[(5-chloro-2-ethylsulfonylphenyl)methyl]-5-(trifluoromethyl)benzamide], it took 800 nM to reach half-maximal inhibition against DDR1 (IC50).

With `CCS(=O)(=O)c1ccc(Cl)cc1CNC(=O)c1cc(Cl)c(CN2CCC([N+](C)(C)[O-])CC2)c(C(F)(F)F)c1` [Compound N-24], the IC50 (as a rule, the concentration that inhibits the measured activity by half) at DDR1 stood at 76 nM.

`CCS(=O)(=O)c1ccc(Cl)cc1CNC(=O)c1ccc(CN2CCN(C)CC2)c(C(F)(F)F)c1` [Compound B-2, N-(5-Chloro-2-ethanesulfonyl-benzyl)-4-(4-methyl-piperazin-1-ylmethyl)-3-trifluoromethyl-benzamide]: the “Antitumor effect TGI after 11 days passed (%)” value in assay [1] is listed as 61%.

For the compound `CCS(=O)(=O)c1ccc(Cl)cc1CNC(=O)c1cc(Br)cc(OC(F)(F)F)c1` [Compound A-10, 3-bromo-N-(5-chloro-2-ethanesulfonyl-benzyl)-5-trifluoromethoxy-benzamide], the IC50 at DDR1 came out at 50 nM.
